Assay results as given in patent US7981911B2, “Pharmaceutical formulations” (Abbott Laboratories, priority 1999, dated 2011).

Assay: oral bioavailability in dogs
Assay type: in vivo
Settings: both sexes, beagle, dog, plasma; unformulated solid in a capsule dosage form; 5 mg/kg oral dose in dogs
Description: Dogs (beagle dogs, mixed sexes, weighing 7-14 kg) were fasted overnight prior to dosing, but were permitted water ad libitum. Each dog received a 100 μg/kg subcutaneous dose of histamine approximately 30 minutes prior to dosing. Each dog received a single dosage form corresponding to a 5 mg/kg dose of the drug. The dose was followed by approximately 10 milliliters of water. Blood samples were obtained from each animal prior to dosing and 0.25, 0.5, 1.0, 1.5, 2, 3, 4, 6, 8, 10, and 12 hours after drug administration. The plasma was separated from the red cells by centrifugation and frozen (−30° C.) until analysis. Concentrations of parent drug were determined by reverse phase HPLC with low wavelength UV detection following liquid-liquid extraction of the plasma samples. The parent drug area under the curve was calculated by the trapezoidal method over the time course of the study. The absolute bioavailability of each test composition was calculated by comparing the area under the curve after oral dosing to that obtained from a single intravenous dose. Each capsule or capsule composition was evaluated in a group containing at least six dogs; the values reported are averages for each group of dogs.

A bioavailability of under 2% was found for `CC(C)c1nc(CN(C)C(=O)NC(C(=O)NC(Cc2ccccc2)CC(O)C(Cc2ccccc2)NC(=O)OCc2cncs2)C(C)C)cs1` (stereo not shown) [compound of formula I] in this work.
